Source: the NIST ThermoML archive (doi:10.1007/s10765-012-1370-2)
Numbers after ± are expanded uncertainties.

Test: xn = mol fraction of the nth substance listed
Details: Liquid, Bellows volumetry

CCC [propane] + O=C=O
mass density [kg/m3]
Details	280 K	320 K	360 K	400 K	440 K
3000 kPa, x2 = 0.1744	556.31 ± 1.1	–	–	–	–
5000 kPa, x2 = 0.1744	561.89 ± 1.1	482.68 ± 0.97	–	–	–
10000 kPa, x2 = 0.1744	573.48 ± 1.2	508.23 ± 1	419.87 ± 0.84	–	–
10000 kPa, x2 = 0.3863	620.48 ± 1.3	530.48 ± 1.1	–	–	–
10000 kPa, x2 = 0.5837	680.55 ± 1.4	547.46 ± 1.1	–	–	–
10000 kPa, x2 = 0.7732	763.91 ± 1.6	–	–	–	–
20000 kPa, x2 = 0.1744	592.16 ± 1.2	539.43 ± 1.1	481.41 ± 0.97	–	–
20000 kPa, x2 = 0.3863	644.94 ± 1.3	577.9 ± 1.2	501.31 ± 1	416.94 ± 0.84	–
20000 kPa, x2 = 0.5837	713.25 ± 1.5	623.7 ± 1.3	518.21 ± 1	–	–
20000 kPa, x2 = 0.7732	807.46 ± 1.7	683.7 ± 1.4	532.45 ± 1.1	–	–
30000 kPa, x2 = 0.1744	606.51 ± 1.2	560.67 ± 1.1	513.49 ± 1	463.97 ± 0.93	–
30000 kPa, x2 = 0.3863	663.74 ± 1.4	606.46 ± 1.2	546.54 ± 1.1	484.73 ± 0.97	425.58 ± 0.86
30000 kPa, x2 = 0.5837	737.38 ± 1.5	663.4 ± 1.4	584.42 ± 1.2	504.63 ± 1	–
30000 kPa, x2 = 0.7732	837.33 ± 1.7	738.49 ± 1.5	631.46 ± 1.3	526.28 ± 1.1	–
40000 kPa, x2 = 0.1744	619.31 ± 1.3	577.4 ± 1.2	535.86 ± 1.1	493.75 ± 1	453.4 ± 0.91
40000 kPa, x2 = 0.3863	678.81 ± 1.4	628.01 ± 1.3	576.34 ± 1.2	524.65 ± 1.1	475.39 ± 0.96
40000 kPa, x2 = 0.5837	756.53 ± 1.6	691.1 ± 1.4	624.74 ± 1.3	558.9 ± 1.1	498.14 ± 1
40000 kPa, x2 = 0.7732	861.06 ± 1.8	775.23 ± 1.6	686.69 ± 1.4	600.44 ± 1.2	524.14 ± 1.1
50000 kPa, x2 = 0.1744	629.89 ± 1.3	591.36 ± 1.2	553.69 ± 1.1	515.97 ± 1	480.3 ± 0.97
50000 kPa, x2 = 0.3863	691.83 ± 1.4	645.47 ± 1.3	599.05 ± 1.2	553.29 ± 1.1	510.05 ± 1
50000 kPa, x2 = 0.5837	772.63 ± 1.6	713.18 ± 1.5	654.15 ± 1.3	596.39 ± 1.2	543.19 ± 1.1
50000 kPa, x2 = 0.7732	880.32 ± 1.8	803.46 ± 1.7	725.46 ± 1.5	650.25 ± 1.3	582.81 ± 1.2
60000 kPa, x2 = 0.1744	639.83 ± 1.3	603.47 ± 1.2	568.6 ± 1.2	533.68 ± 1.1	501.53 ± 1
60000 kPa, x2 = 0.3863	703.48 ± 1.4	660.15 ± 1.4	617.66 ± 1.3	575.8 ± 1.2	536.68 ± 1.1
60000 kPa, x2 = 0.5837	786.68 ± 1.6	731.74 ± 1.5	677.69 ± 1.4	625.2 ± 1.3	577.1 ± 1.2
60000 kPa, x2 = 0.7732	897.67 ± 1.9	826.73 ± 1.7	755.67 ± 1.6	687.92 ± 1.4	626.71 ± 1.3
70000 kPa, x2 = 0.1744	648.12 ± 1.3	613.78 ± 1.2	581.28 ± 1.2	548.87 ± 1.1	518.95 ± 1.1
70000 kPa, x2 = 0.3863	713.93 ± 1.5	673.05 ± 1.4	633.44 ± 1.3	594.51 ± 1.2	558.53 ± 1.1
70000 kPa, x2 = 0.5837	799.31 ± 1.7	747.63 ± 1.6	697.37 ± 1.4	648.89 ± 1.3	604.68 ± 1.2
70000 kPa, x2 = 0.7732	912.73 ± 1.9	846.24 ± 1.8	780.83 ± 1.6	718.31 ± 1.5	661.78 ± 1.4
80000 kPa, x2 = 0.1744	656.23 ± 1.3	623.2 ± 1.3	592.36 ± 1.2	561.96 ± 1.1	533.91 ± 1.1
80000 kPa, x2 = 0.3863	723.24 ± 1.5	684.45 ± 1.4	647.34 ± 1.3	610.56 ± 1.2	576.94 ± 1.2
80000 kPa, x2 = 0.5837	810.6 ± 1.7	761.45 ± 1.6	714.31 ± 1.5	668.81 ± 1.4	627.72 ± 1.3
80000 kPa, x2 = 0.7732	927.24 ± 1.9	863.57 ± 1.8	802.2 ± 1.7	743.76 ± 1.5	690.97 ± 1.4
90000 kPa, x2 = 0.1744	663.51 ± 1.4	631.77 ± 1.3	602.5 ± 1.2	573.37 ± 1.2	546.96 ± 1.1
90000 kPa, x2 = 0.3863	732.5 ± 1.5	694.88 ± 1.4	659.51 ± 1.4	624.68 ± 1.3	592.95 ± 1.2
90000 kPa, x2 = 0.5837	821.14 ± 1.7	773.99 ± 1.6	729.21 ± 1.5	686.29 ± 1.4	647.49 ± 1.3
90000 kPa, x2 = 0.7732	939.34 ± 2	879.25 ± 1.8	821 ± 1.7	765.81 ± 1.6	715.85 ± 1.5
100000 kPa, x2 = 0.1744	670.12 ± 1.4	639.8 ± 1.3	611.43 ± 1.2	583.87 ± 1.2	558.7 ± 1.1
100000 kPa, x2 = 0.3863	740.27 ± 1.5	704.18 ± 1.4	670.54 ± 1.4	637.16 ± 1.3	607.11 ± 1.2
100000 kPa, x2 = 0.5837	830.57 ± 1.7	785.61 ± 1.6	742.72 ± 1.5	701.68 ± 1.4	664.74 ± 1.4
100000 kPa, x2 = 0.7732	951.22 ± 2	893.05 ± 1.9	837.52 ± 1.7	785.16 ± 1.6	737.47 ± 1.5
120000 kPa, x2 = 0.1744	682.47 ± 1.4	654.22 ± 1.3	627.94 ± 1.3	601.92 ± 1.2	578.72 ± 1.2
120000 kPa, x2 = 0.3863	754.61 ± 1.6	721.25 ± 1.5	690.06 ± 1.4	658.95 ± 1.4	631.24 ± 1.3
120000 kPa, x2 = 0.5837	847.84 ± 1.8	806 ± 1.7	766.21 ± 1.6	728.37 ± 1.5	694.36 ± 1.4
120000 kPa, x2 = 0.7732	971.86 ± 2	917.78 ± 1.9	866.62 ± 1.8	818.25 ± 1.7	774.63 ± 1.6
140000 kPa, x2 = 0.1744	693.54 ± 1.4	666.67 ± 1.4	642.06 ± 1.3	617.62 ± 1.3	595.88 ± 1.2
140000 kPa, x2 = 0.3863	767.28 ± 1.6	735.96 ± 1.5	706.76 ± 1.4	677.58 ± 1.4	651.66 ± 1.3
140000 kPa, x2 = 0.5837	862.96 ± 1.8	824.18 ± 1.7	786.28 ± 1.6	750.66 ± 1.6	719.21 ± 1.5
140000 kPa, x2 = 0.7732	989.75 ± 2.1	939.18 ± 1.9	891.18 ± 1.9	845.81 ± 1.8	805.33 ± 1.7
160000 kPa, x2 = 0.1744	703.41 ± 1.4	678.11 ± 1.4	654.39 ± 1.3	631.49 ± 1.3	610.94 ± 1.2
160000 kPa, x2 = 0.3863	779.18 ± 1.6	749.2 ± 1.5	721.47 ± 1.5	693.82 ± 1.4	669.67 ± 1.4
160000 kPa, x2 = 0.5837	876.77 ± 1.8	839.79 ± 1.8	803.84 ± 1.7	770.18 ± 1.6	740.68 ± 1.5
160000 kPa, x2 = 0.7732	1006.14 ± 2.1	958.02 ± 2	912.47 ± 1.9	869.72 ± 1.8	831.52 ± 1.7
180000 kPa, x2 = 0.1744	712.71 ± 1.5	688.17 ± 1.4	665.89 ± 1.4	643.58 ± 1.3	624.2 ± 1.3
180000 kPa, x2 = 0.3863	789.73 ± 1.6	761.05 ± 1.6	734.92 ± 1.5	708.41 ± 1.4	685.33 ± 1.4
180000 kPa, x2 = 0.5837	889 ± 1.9	853.99 ± 1.8	819.85 ± 1.7	787.61 ± 1.6	759.39 ± 1.6
180000 kPa, x2 = 0.7732	1020.76 ± 2.1	975.24 ± 2	931.8 ± 1.9	890.88 ± 1.9	854.41 ± 1.8
200000 kPa, x2 = 0.1744	720.96 ± 1.5	697.95 ± 1.4	676.04 ± 1.4	654.96 ± 1.3	636.19 ± 1.3
200000 kPa, x2 = 0.3863	799.56 ± 1.6	772.24 ± 1.6	746.96 ± 1.5	721.61 ± 1.5	699.19 ± 1.4
200000 kPa, x2 = 0.5837	900.92 ± 1.9	866.84 ± 1.8	833.79 ± 1.7	803.17 ± 1.7	776.34 ± 1.6
200000 kPa, x2 = 0.7732	1034.57 ± 2.2	990.64 ± 2.1	948.91 ± 2	909.94 ± 1.9	875.02 ± 1.8
